Measurements as given in the Kinase Knowledgebase extract (Sharma et al. 2016).

Experiments:
MAPK14 [1] = target: MAPK14 (UniProt Q16539); assay: Enzyme Assay
MAPK14 (human) = MAPK14 (human) (UniProt Q16539); assay: Cell-Based Assay; conditions: monocyte
MAPK14 [2] = target: MAPK14 (UniProt Q16539); assay: Enzyme Assay; remark: listed apart in the source

MAPK14, sequence (Q16539 whole entry, looked up): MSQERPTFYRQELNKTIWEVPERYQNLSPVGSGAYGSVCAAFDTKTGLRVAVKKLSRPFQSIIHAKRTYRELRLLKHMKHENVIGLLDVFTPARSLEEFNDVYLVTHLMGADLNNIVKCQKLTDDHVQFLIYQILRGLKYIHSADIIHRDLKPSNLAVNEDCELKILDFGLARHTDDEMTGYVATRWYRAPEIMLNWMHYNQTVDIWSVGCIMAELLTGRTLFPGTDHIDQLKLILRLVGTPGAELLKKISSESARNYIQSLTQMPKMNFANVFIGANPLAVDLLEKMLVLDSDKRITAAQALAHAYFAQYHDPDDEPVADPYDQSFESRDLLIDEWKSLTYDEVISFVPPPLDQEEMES
MAPK14 (human), sequence (Q16539 whole entry, looked up): as above

SMILES | IC50 (MAPK14 [1]) [nM] | IC50 (MAPK14 (human)) [nM] | IC50 (MAPK14 [2]) [nM]
Fc1ccc(-c2ncn(CCCN3CCOCC3)c2-c2ccccn2)cc1 | > 10000 |  | 
CCSc1ccc(-c2nc3n(c2-c2ccncc2)CCC3)cc1 | 5600 | > 20000 | 
Brc1ccc(-c2nc3n(c2-c2ccncc2)CCC3)cc1 | 3200 | 700 | 
C[S+]([O-])c1ccc(-c2nc(-c3cccs3)c(-c3ccncc3)[nH]2)cc1 (configuration not stated) | 460 |  | 
CCc1nc[nH]c1-c1ccncc1 | > 30000 | > 5000 | > 2500
COc1ccc(-c2nc3n(c2-c2ccncc2)CCC3)cc1 | 3600 | 4200 | 
Clc1ccccc1-c1nc2n(c1-c1ccncc1)CCC2 | 250 |  | 
C[S+]([O-])c1cccc(-c2ncn(CCCN3CCOCC3)c2-c2ccncc2)c1 (configuration not stated) |  | > 5000 | 
O=[N+]([O-])c1ccc(-c2nc(-c3ccc(F)cc3)c(-c3ccccc3)[nH]2)cc1 | > 10000 | > 5000 | > 2500
CC(=O)OCCc1nc(-c2ccncc2)c(-c2ccc(F)cc2)[nH]1 | > 10000 |  | 
Cc1cc(-c2c(-c3ccc(F)cc3)ncn2CCCN2CCOCC2)ccn1 | 3000 |  | 
Clc1nc2n(c1-c1ccncc1)CCC2 | > 50000 |  | 
CS(=O)(=O)c1ccc(-c2nc3n(c2-c2ccncc2)CCC3)cc1 | > 10000 | > 10000 | 
Cc1cc(-c2[nH]c(-c3ccc([S+](C)[O-])cc3)nc2-c2ccc(F)cc2)ccn1 (configuration not stated) |  | 430 | 
CC(C)(C)C1=CC(O)(C(C)(C)C)CC(c2nc(-c3ccc(F)cc3)c(-c3ccncc3)[nH]2)=C1 (configuration not stated) | > 30000 | > 5000 | > 2500

Other lines, results leading:

IC50 (MAPK14 [1]) [nM] | IC50 (MAPK14 (human)) [nM] | IC50 (MAPK14 [2]) [nM] | SMILES
 | 590 |  | Fc1ccc(-c2ncn(CCCNCc3ccccc3)c2-c2ccncc2)cc1
440 |  |  | Fc1ccc(-c2ncn(C3CCN(Cc4ccccc4)CC3)c2-c2ccncc2)cc1
3400 | 2700 |  | CSc1ccc(-c2nc3n(c2-c2ccncc2)CCC3)cc1
> 10000 | > 10000 |  | C[S+]([O-])c1ccc(-c2nc3n(c2-c2ccncc2)CCC3)cc1 (configuration not stated)
> 10000 |  |  | Fc1ccc(-c2ncn(CCCN3CCOCC3)c2-c2cccnc2)cc1
 | 2300 |  | C[S+]([O-])c1ccc(-n2cnc(-c3ccc(F)cc3)c2-c2ccncc2)cc1 (configuration not stated)
 | 1000 |  | CSc1cccc(-c2ncn(CCCN3CCOCC3)c2-c2ccncc2)c1
50 |  |  | Clc1ccc(-c2nc3n(c2-c2ccncc2)CCC3)cc1
66 | 170 |  | Fc1ccc(-c2nc3n(c2-c2ccncc2)CCC3)cc1
40 | 50 |  | Clc1cccc(-c2nc3n(c2-c2ccncc2)CCC3)c1
> 10000 |  |  | Fc1ccc(-c2c(-c3ccncc3)nc3n2CCC3)cc1
50 |  |  | CC(=O)OCCn1cnc(-c2ccc(F)cc2)c1-c1ccncc1
30 |  |  | O=C1CN(c2ccc(-c3nc(-c4ccc(F)cc4)c(-c4ccncc4)[nH]3)cc2)NO1
